Experimental data as given in US8383637B2, “2-amino-quinazoline derivatives useful as inhibitors of β-secretase (BACE)” (Jansssen Pharmaceutica N.V., priority 2004, dated 2013).
Like-named read-outs stand apart in the source and are kept apart here.

What was measured:
β-secretase(BACE) [1] = target: T1, β-secretase(BACE) (Homo sapiens, UniProt P56817); experiment: BACE Assay-2 (FS1 substrate, IC50 and Ki); assay type: biochemical; conditions: procedure of Example 159, FS1 substrate; read-out: Ki μM (159)
T1 construct: purchased Panvera
T1 sequence (P56817 46-501): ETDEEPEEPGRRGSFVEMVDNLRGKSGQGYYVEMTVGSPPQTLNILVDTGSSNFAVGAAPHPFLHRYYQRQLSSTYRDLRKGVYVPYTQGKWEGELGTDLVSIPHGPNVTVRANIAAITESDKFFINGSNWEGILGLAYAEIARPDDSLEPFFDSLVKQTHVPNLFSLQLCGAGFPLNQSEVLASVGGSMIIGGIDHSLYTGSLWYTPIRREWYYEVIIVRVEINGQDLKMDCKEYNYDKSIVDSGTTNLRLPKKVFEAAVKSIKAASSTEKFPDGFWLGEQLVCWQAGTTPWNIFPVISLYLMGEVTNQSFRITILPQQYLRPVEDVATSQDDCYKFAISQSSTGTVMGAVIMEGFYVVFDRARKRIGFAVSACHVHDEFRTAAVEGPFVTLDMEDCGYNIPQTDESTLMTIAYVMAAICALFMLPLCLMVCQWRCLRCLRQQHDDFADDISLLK
Experimental: The FS1-substrate stock solution was prepared in DMSO as a 10 mg/mL solution. The FS1-substrate working solution was prepared by diluting the 10 mg/mL stock solution with substrate assay buffer to a final concentration of 300 μg/mL. The β-secretase (BACE) working solution was prepared by diluting a 0.83 mg/mL BACE stock solution with enzyme assay buffer to a final concentration of 4 μg/mL.
Test compounds were dissolved in DMSO at 10 mM.
The procedure for this assay was as follows: 15 μL of BACE working solution was pipetted into each well of a 96-well plate. To each well was then pipetted 2 μL of test compound at the selected concentration. Test compound and BACE were then mixed with a pipettor and incubated for 20 min at room temperature. To each well was then added 10 μL of the FS1 substrate working solution.
The procedure for the positive control was as follows: 15 μL of BACE working solution was pipetted into each well to be used as a positive control. To each well was then pipetted 2 μL of vehicle. Vehicle and BACE were then mixed with a pipettor and incubated for 20 min at room temperature. To each well was then added 10 μL of the FS1 substrate working solution.
For test compounds, measured at multiple concentrations, the measured T0 and T60 values were used to calculate an IC50 value using Graphpad Software (or PIR). For test compounds, Ki inhibition was determined as follows: For each compound concentration and positive control, rate of cleavage of substrate (Vi, where i=compound concentration in μM) was determined as Δ Fluorescence/Δ time (min). Cleavage rates (Vi) were plotted as a function of inhibitor concentration in μM [I]. The Ki was then determined by fitting the following equation to the graph of [I] vs Vi Y=aVmax/(50+24*(1+X/Ki)),

β-secretase(BACE) [2] = target: T1, β-secretase(BACE); experiment: BACE FS1% Inhibition Assay; assay type: biochemical; conditions: FS1 substrate; for inhibition at 10 µM: 10 μM test compound, read-out: % Inhibition (FS) 10 μM
Outline: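 Percent inhibition at each tested concentration, referenced to enzyme-free blank and vehicle-only positive control. Reaction: compound and BACE (4 μg/mL working stock) mixed 20 min at room temperature before FS1 substrate (300 μg/mL working stock), then 1 h at room temperature.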

[3] = 0.3 μM test compound, read-out: % Inhibition (FS) 0.3 μM
[4] = 1 μM test compound, read-out: % Inhibition (FS) 1 μM
[5] = 3 μM test compound, read-out: % Inhibition (FS) 3 μM
[6] = 0.3 μM test compound, read-out: % Inhibition (FS)
[7] = 1 μM test compound, read-out: % Inhibition (FS)
[8] = 3 μM test compound, read-out: % Inhibition (FS)

Row | Structure (SMILES) | % Inhibition (FS) (β-secretase(BACE) [2]; 0.3 μM test compound) | % Inhibition (FS) (β-secretase(BACE) [2]; 1 μM test compound) | % Inhibition (FS) (β-secretase(BACE) [2]; 3 μM test compound) | inhibition at 0.3 µM (β-secretase(BACE) [2]; [6]) | inhibition at 1 µM (β-secretase(BACE) [2]; [7]) | inhibition at 3 µM (β-secretase(BACE) [2]; [8]) | also measured
1 | COc1ccccc1-c1ccc2c(c1)CN(C(CCC(=O)N(C)C1CCCCC1)C1CCCCC1)C(N)=N2 (single isomer, unassigned) [Compound 530] |  |  |  |  |  |  | Ki (β-secretase(BACE) [1]): 0.13 µM; inhibition at 0.3 µM (β-secretase(BACE) [2]; [3]): < 30%; inhibition at 1 µM (β-secretase(BACE) [2]; [4]): 80%; inhibition at 3 µM (β-secretase(BACE) [2]; [5]): 118%
2 | CCCS(=O)(=O)NCCN1Cc2cc(Oc3ccccc3)ccc2N=C1N [Compound 134] |  |  |  |  |  |  | Ki (β-secretase(BACE) [1]): 0.37 µM; inhibition at 3 µM (β-secretase(BACE) [2]; [5]): 70%; inhibition at 10 µM (β-secretase(BACE) [2]): 104%
3 | CN(C(=O)c1cccc(C(c2ccccc2)N2Cc3cc(Oc4ccccc4)ccc3N=C2N)c1)C1CCCCC1 (stereo not drawn) [Compound 136] |  |  |  |  |  |  | Ki (β-secretase(BACE) [1]): 0.5 µM; inhibition at 3 µM (β-secretase(BACE) [2]; [5]): 85%; inhibition at 10 µM (β-secretase(BACE) [2]): 133%
4 | CCCC(CCCC(=O)NC1CCCCCC1)N1Cc2cc(Oc3ccccc3)ccc2N=C1N (stereo not drawn) [Compound 137] |  |  |  |  |  |  | Ki (β-secretase(BACE) [1]): 0.73 µM; inhibition at 3 µM (β-secretase(BACE) [2]; [5]): 82%; inhibition at 10 µM (β-secretase(BACE) [2]): 107%
5 | NC1=Nc2ccc(Oc3ccccc3)cc2CN1CCNC(=O)CCC1CCCC1 [Compound 140] |  |  |  |  |  |  | Ki (β-secretase(BACE) [1]): 0.32 µM; inhibition at 3 µM (β-secretase(BACE) [2]; [5]): 79%; inhibition at 10 µM (β-secretase(BACE) [2]): 101%
6 | CCCCCC(CCC(=O)N(C)C1CCCCC1)N1Cc2cc(Oc3ccccc3)ccc2N=C1N (stereo not drawn) [Compound 148] |  |  |  |  |  |  | Ki (β-secretase(BACE) [1]): 0.25 µM; inhibition at 0.3 µM (β-secretase(BACE) [2]; [3]): 35%; inhibition at 1 µM (β-secretase(BACE) [2]; [4]): 62%; inhibition at 3 µM (β-secretase(BACE) [2]; [5]): 114%
7 | CCCCCC(CCC(=O)NC1CCCCC1)N1Cc2cc(Oc3ccccc3)ccc2N=C1N (stereo not drawn) [Compound 149] |  |  |  |  |  |  | Ki (β-secretase(BACE) [1]): 0.21 µM; inhibition at 0.3 µM (β-secretase(BACE) [2]; [3]): 32%; inhibition at 1 µM (β-secretase(BACE) [2]; [4]): 71%; inhibition at 3 µM (β-secretase(BACE) [2]; [5]): 111%
8 | CN(C(=O)CCC(C1CCOCC1)N1Cc2cc(Oc3ccccc3)ccc2N=C1N)C1CCC(C(=O)O)CC1 (stereo not drawn) [Compound 743] | 107% | 125% | 130% |  |  |  | 
9 | COC(=O)[C@H]1CC[C@H](NC(=O)CC[C@@H](C2CCOCC2)N2Cc3cc(Oc4ccccc4)ccc3N=C2N)CC1 [Compound 747] | 41% | 74% | 104% |  |  |  | 
10 | CN(CCCCC(=O)O)C(=O)CC[C@@H](C1CCCCC1)N1Cc2cc(Oc3ccccc3)ccc2N=C1N [Compound 752] | 45% | 81% | 109% |  |  |  | 
11 | CN(C(=O)CC[C@@H](C1CCCCC1)N1Cc2ccc(Oc3ccccc3)cc2N=C1N)C1CCCCC1 [Compound 754] | 8% | 35% | 89% |  |  |  | 
12 | CN(C(=O)CCC(C1CCCCC1)N1Cc2cc(Oc3ccccc3)ccc2N=C1N)C1CCC(C(=O)OCc2ccccc2)CC1 (stereo not drawn) [Compound 760] | <30% | 44% | 89% |  |  |  | 
13 | CCOC(=O)C1CCC(N(C)C(=O)CCC(C2CCCCC2)N2Cc3cc(Oc4ccccc4)ccc3N=C2N)CC1 (stereo not drawn) [Compound 763] |  |  |  |  |  |  | % Inhibition (FS) (β-secretase(BACE) [2]; 0.3 μM test compound, 0.3 µM): <30%; % Inhibition (FS) (β-secretase(BACE) [2]; 1 μM test compound, 1 µM): 84%; % Inhibition (FS) (β-secretase(BACE) [2]; 3 μM test compound, 3 µM): 109%
14 | CNC(=O)C1CCC(N(C)C(=O)CCC(C2CCCCC2)N2Cc3cc(Oc4ccccc4)ccc3N=C2N)CC1 (stereo not drawn) [Compound 765] | <30% | 56% | 97% |  |  |  | 
15 | CN(C(=O)CCC(C1CCCCC1)N1Cc2cc(Oc3ccccc3)ccc2N=C1N)c1ccc(C(=O)O)cc1 (stereo not drawn) [Compound 766] | <30% | <30% | <30% |  |  |  | 
16 | CN(CC(=O)O)C(=O)CCC(C1CCCCC1)N1Cc2cc(Oc3ccccc3)ccc2N=C1N (stereo not drawn) [Compound 767] | <30% | 71% | 106% |  |  |  | 
17 | CN(C(=O)CCC(C1CCCCC1)N1Cc2cc(Oc3ccccc3)ccc2N=C1N)C1CCC(C#N)CC1 (stereo not drawn) [Compound 769] | <30% | 61% | 107% |  |  |  | 

Row | Structure (SMILES) | % Inhibition (FS) (β-secretase(BACE) [2]; 0.3 μM test compound) | % Inhibition (FS) (β-secretase(BACE) [2]; 1 μM test compound) | % Inhibition (FS) (β-secretase(BACE) [2]; 3 μM test compound) | inhibition at 0.3 µM (β-secretase(BACE) [2]; [6]) | inhibition at 1 µM (β-secretase(BACE) [2]; [7]) | inhibition at 3 µM (β-secretase(BACE) [2]; [8]) | also measured
18 | CN(C(=O)CCC(C1CCCCC1)N1Cc2cc(Oc3ccccc3)ccc2N=C1N)C1CCC(c2nn[nH]n2)CC1 (stereo not drawn) [Compound 770] | <30% | <30% | <30% |  |  |  | 
19 | COC(=O)Cc1cccc(CN(C)C(=O)CCC(C2CCCCC2)N2Cc3cc(Oc4ccccc4)ccc3N=C2N)c1 (stereo not drawn) [Compound 775] | <30% | 62% | 111% |  |  |  | 
20 | CN(Cc1cccc(CC(=O)O)c1)C(=O)CCC(C1CCCCC1)N1Cc2cc(Oc3ccccc3)ccc2N=C1N (stereo not drawn) [Compound 778] | <30% | 77% | 113% |  |  |  | 
21 | COC(=O)C(COCc1ccccc1)N(C)C(=O)CCC(C1CCCCC1)N1Cc2cc(Oc3ccccc3)ccc2N=C1N (stereo not drawn) [Compound 780] | 69% | 97% | 109% |  |  |  | 
22 | CN(C(=O)CCC(C1CCCCC1)N1Cc2cc(Oc3ccccc3)ccc2N=C1N)C(COCc1ccccc1)C(=O)O (stereo not drawn) [Compound 781] | 106% | 109% | 121% |  |  |  | 
23 | CN(C(=O)c1cccc(CN2Cc3ccccc3N=C2N)c1)C1CCCCC1 [Compound 801] |  |  |  | < 30% | < 30% | < 30% | 
24 | CN(C(=O)c1cccc(CN2Cc3cc(Br)ccc3N=C2N)c1)C1CCCCC1 [Compound 802] |  |  |  | < 30% | < 30% | 50% | 
25 | CN(C(=O)CC(c1ccccc1)N1Cc2cc(F)ccc2N=C1N)C1CCCCC1 (stereo not drawn) [Compound 803] |  |  |  | < 30% | < 30% | < 30% | 
26 | NC1=Nc2ccc(Br)cc2CN1CCC(=O)NC12CC3CC(CC(C3)C1)C2 [Compound 804] |  |  |  | < 30% | < 30% | < 30% | 
27 | NC1=Nc2ccc(Oc3ccccc3)cc2CN1Cc1cccc(C(=O)O)c1 [Compound 805] |  |  |  | < 30% | < 30% | < 30% | 
28 | NC1=Nc2ccc(Br)cc2CN1CCNC(=O)C1CCCCC1 [Compound 806] |  |  |  | < 30% | < 30% | < 30% | 
29 | N#Cc1cccc(C(=O)NCCN2Cc3cc(Br)ccc3N=C2N)c1 [Compound 807] |  |  |  | < 30% | < 30% | < 30% | 
30 | CCCC(=O)NCCN1Cc2cc(Br)ccc2N=C1N [Compound 808] |  |  |  | < 30% | < 30% | < 30% | 
31 | CC(C)(C)C(=O)NCCN1Cc2cc(Br)ccc2N=C1N [Compound 809] |  |  |  | < 30% | < 30% | 32% | 
32 | COc1cccc(CCNC(=O)CCC(C2CCCCC2)N2Cc3cc(F)ccc3N=C2N)c1 (stereo not drawn) [Compound 810] |  |  |  | < 30% | < 30% | < 30% | 
33 | NC1=Nc2ccc(Oc3ccccc3)cc2CN1Cc1cccc(N)c1 [Compound 811] |  |  |  | < 30% | < 30% | < 30% | 
